# Assay: In vitro absorption of foam/gas in fresh human venous blood
# Format: in vitro ADME
# Protocol: In vitro experiments were conducted to determine the absorption of foam made with different gases in fresh human venous blood.
# A 20 ml polypropylene syringe barrel was prepared by puncturing its side wall with a relatively large hypodermic needle to make a hole approximately 1 mm in diameter. This hole was then covered by securing a piece of clear flexible vinyl sheet over it with clear adhesive tape. A small magnetic stirrer element was introduced into the syringe barrel and the plunger then replaced. 20 ml of human venous blood was then with withdrawn in the usual manner from a human subject using the specially prepared syringe fitted with a hypodermic needle.
# The hypodermic needle was removed and the syringe then placed on a magnetic stirrer unit so that the magnetic element in the syringe thoroughly agitated the blood. The Luer nozzle of the syringe was then connected to a 50 cm piece of manometer tubing which was arranged horizontally and left open at one end. The manometer tubing was secured against a scale.
# A 0.5 ml measuring syringe with a fine pre-fitted needle was then filled with foam made from 1% polidocanol solution and air.
# The needle of the 0.5 ml syringe was then introduced through the vinyl sheet on the side wall of the 20 ml syringe. […] The 0.5 ml aliquot of foam was then injected quickly and simultaneously a timer started (t0). As the foam displaced blood in the 20 ml syringe, the column of blood from the 20 ml syringe was displaced into the manometer tubing and the distance along the tubing reached by the distal end of the blood column was noted against the scale. The scale itself comprised spaced marker lines equally spaced at about 1 cm intervals.
# As the gas in the foam started to be absorbed by the blood, the blood in the manometer tubing started to recede back towards the syringe. After the column appeared to have stopped moving, the timer was stopped (tF). The position of the distal end was again noted.
# In this experiment, the air foam test was only observed for a few minutes after tF. […] A 20 ml syringe of fresh human venous blood, as in the above experiments, was injected with a 0.5 ml aliquot of a foam containing a percentage of nitrogen. The contents of the syringe were agitated as above and a period of 24 hours allowed to elapse.
smiles,measurement,setting,value
"O=O [Oxygen gas, oxygen gas]",Absorbed volume at tF,0.5 ml aliquot in 20 ml blood,0.46 mL
same,Unabsorbed gas %,at tF,8%
same,Unabsorbed gas ml,at tF,0.04 mL
same,"Position of blood at tF (""z"")","manometer scale intervals, 45 intervals approx. 0.5 ml",5.5
same,tF,"time until blood column stopped moving, 0.5 ml aliquot in 20 ml blood",140 s

# From patent publication US20080274060A1, “Therapeutic Foam” (priority 2005, published 2008)
